The results in this text go back to patent US20090092631A1, “GLYCOSYLATED SPECIFICITY EXCHANGERS THAT INDUCE AN ANTIBODY DEPENDENT CELLULAR CYTOTOXICITY (ADCC) RESPONSE” (priority 2007, published 2009).

The subject of the assay is HIV-1 IIIB. Kind of assay: Neutralization assay (plaque-forming units/syncytia) in U87 cells expressing CD4 and co-receptor. Format: cell-based. The protocol:
Once it had been determined that the glycosylated specificity exchangers appreciably bound gp120 and human antibody, the antiviral activity of the glycosylated specificity exchangers was evaluated using a neutralization assay that is recognized in the art to reasonably predict the therapeutic efficacy of an HIV vaccine. (See Y. Shi et al., “A new cell line-based neutralization assay for primary HIV type 1 isolates,” AIDS Res Hum Retroviruses 18:957-967 (2002), herein expressly incorporated by reference in its entirety). By this approach, HIV infection of U87 cells that express CD4 and one of the major co-receptors (either CXCR4 or CCR5) were challenged with the glycosylated specificity exchangers and human serum during competition with the CD4 receptor. The infected cells form syncytia, that is, plaques, that were stained and enumerated by light microscopy. Neutralization was then determined by the ability of human serum and glycosylated specificity exchanger to reduce the number of plaque-forming units (PFU) relative to controls.
In brief, the U87 cells were seeded onto a 48 well plate at a concentration of 100,000 cell/well 1 day prior infection with HIV-1 IIIB. On the day of infection, glycosylated specificity exchangers (Seq. ID. Nos. 4-9), human serum and virus stock were diluted in culture medium and incubated in a separate 48 well plate, to a final dilution of 1:10/1:20 for the serum and an appropriate concentration of the virus, according to the titration. The glycosylated specificity exchangers were analyzed at different concentrations to determine the minimal amount required for antiviral activity. The glycosylated specificity exchanger-serum-virus mixture was kept at 37° C. for 1 hr. Then, two hundred microliters of each dilution was distributed into wells containing the U87/CD4 cells. The experiment was performed in quadruplicate in the same plate and in five separate plates.
Controls for the assay included glycosylated specificity exchanger without the coupled sugar, the glycosylated specificity exchanger (coupled with the sugar) and a 1:10/1:20 dilution of heat inactivated human serum, cells and medium only, and cells and medium and serum. […]

The mark [1] stands for this setting: CD4 peptide Alone (without coupled sugar), 0.1 ug/ml, 0.3 equals 30% inhibition.
Where [2] appears, read: CD4 peptide Alone (without coupled sugar), 1 ug/ml, 0.3 equals 30% inhibition.
[3] abbreviates: CD4 peptide Alone (without coupled sugar), 10 ug/ml, 0.3 equals 30% inhibition of HIV replication (syncytia formation).
The mark [4] stands for this setting: Glycosylated Sp. Exchanger & 1:10 dilution human serum, 0.1 ug/ml, 0.3 equals 30% inhibition.
Setting [5] is: Glycosylated Sp. Exchanger & 1:10 dilution human serum, 1 ug/ml, 0.3 equals 30% inhibition.
Setting [6] is: Glycosylated Sp. Exchanger & 1:10 dilution human serum, 10 ug/ml, 0.3 equals 30% inhibition.
Where [7] appears, read: Glycosylated Sp. Exchanger & 1:20 dilution human serum, 0.1 ug/ml, 0.3 equals 30% inhibition.
Where [8] appears, read: Glycosylated Sp. Exchanger & 1:20 dilution human serum, 1 ug/ml, 0.3 equals 30% inhibition.
Setting [9] is: Glycosylated Sp. Exchanger & 1:20 dilution human serum, 10 ug/ml, 0.3 equals 30% inhibition.
Setting [10] is: Glycosylated Sp. Exchanger, 0.1 ug/ml, 0.3 equals 30% inhibition.
[11] abbreviates: Glycosylated Sp. Exchanger, 1 ug/ml, 0.3 equals 30% inhibition.
The mark [12] stands for this setting: Glycosylated Sp. Exchanger, 10 ug/ml, 0.3 equals 30% inhibition.

Regarding “6 (KILGNQGSFLTKGPS; Homo sapien) [compound 6]”, the “neutralization of the virus” value reads like this: under setting [1], “neg (Neg = negative <0.30)”; under setting [2], “neg (Neg = negative <0.30)”; under setting [3], “neg (Neg = negative <0.30)”; under setting [4], 0.50; under setting [5], 0.42; under setting [6], 0.60. Further, the “neutralization of the virus” value reads like this: under setting [7], “neg (Neg = negative <0.30)”; under setting [8], “neg (Neg = negative <0.30)”; under setting [9], “neg (Neg = negative <0.30)”; under setting [10], “neg (Neg = negative <0.30)”.
On to “7 (QGSFLTKGPSKLNDR; Homo sapien) [compound 7]”, for which the “neutralization of the virus” value runs as follows: under setting [1], “neg (Neg = negative <0.30)”; under setting [2], “neg (Neg = negative <0.30)”; under setting [3], “neg (Neg = negative <0.30)”; under setting [4], 0.439; under setting [5], 0.461; under setting [6], 0.454. Besides, the “neutralization of the virus” value is recorded as “neg (Neg = negative <0.30)” under setting [7]; “neg (Neg = negative <0.30)” under setting [8]; “neg (Neg = negative <0.30)” under setting [9]; “neg (Neg = negative <0.30)” under setting [10]; “neg (Neg = negative <0.30)” under setting [11]; “neg (Neg = negative <0.30)” under setting [12].
In the case of “8 (TKGPSKLNDRADSRR; Homo sapien) [compound 8]”, the “neutralization of the virus” value by setting is: under setting [4], 0.778; under setting [5], 0.821; under setting [6], 0.83; under setting [7], 0.701; under setting [8], 0.667; under setting [9], 0.642. The “neutralization of the virus” value was determined as 0.548 under setting [11] and 0.552 under setting [12].
Regarding “9 (KLNDRADSRRSLWDQ; Homo sapien) [compound 9]”, the “neutralization of the virus” value is 0.76 under setting [4]; 0.75 under setting [5]; 0.78 under setting [6]; 0.75 (Glycosylated Sp. Exchanger & 1:10 dilution human serum, 100 ug/ml, 0.3 equals 30% inhibition); 0.71 under setting [7]; 0.75 under setting [8]. In addition, the “neutralization of the virus” value under setting [9] is recorded as 0.74; the “neutralization of the virus” value (Glycosylated Sp. Exchanger & 1:20 dilution human serum, 100 ug/ml, 0.3 equals 30% inhibition) amounted to 0.734; the “neutralization of the virus” value under setting [10] is “neg (Neg = negative <0.30)”; the “neutralization of the virus” value under setting [11] is reported as “neg (Neg = negative <0.30)”; the “neutralization of the virus” value under setting [12] is on record as “neg (Neg = negative <0.30)”; the “neutralization of the virus” value (Glycosylated Sp. Exchanger, 100 ug/ml, 0.3 equals 30% inhibition) is given as “neg (Neg = negative <0.30)”.
